Reference: ChEMBL document CHEMBL5291721, “A preclinical secondary pharmacology resource illuminates target-adverse drug reaction associations of marketed drugs” (Nat Commun, 2023)

Key:
[1] = target: T1, Alpha-1A adrenergic receptor (Homo sapiens, UniProt P35348); assay type: functional, cell-based
T1 sequence (P35348 whole entry): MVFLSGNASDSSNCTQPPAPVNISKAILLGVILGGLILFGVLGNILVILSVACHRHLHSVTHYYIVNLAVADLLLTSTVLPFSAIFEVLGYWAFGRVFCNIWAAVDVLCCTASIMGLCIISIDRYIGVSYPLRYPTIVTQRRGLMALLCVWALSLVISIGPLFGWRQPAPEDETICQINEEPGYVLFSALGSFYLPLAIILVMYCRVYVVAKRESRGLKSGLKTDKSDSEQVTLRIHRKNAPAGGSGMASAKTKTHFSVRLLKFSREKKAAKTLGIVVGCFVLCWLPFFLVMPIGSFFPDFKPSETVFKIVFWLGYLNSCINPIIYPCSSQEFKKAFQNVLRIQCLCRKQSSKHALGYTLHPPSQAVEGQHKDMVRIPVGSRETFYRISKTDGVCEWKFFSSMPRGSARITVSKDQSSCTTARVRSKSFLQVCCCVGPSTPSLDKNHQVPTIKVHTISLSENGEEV

[2] = target: T2, Muscarinic acetylcholine receptor M1 (Homo sapiens, UniProt P11229); assay type: functional, cell-based
T2 sequence (P11229 whole entry): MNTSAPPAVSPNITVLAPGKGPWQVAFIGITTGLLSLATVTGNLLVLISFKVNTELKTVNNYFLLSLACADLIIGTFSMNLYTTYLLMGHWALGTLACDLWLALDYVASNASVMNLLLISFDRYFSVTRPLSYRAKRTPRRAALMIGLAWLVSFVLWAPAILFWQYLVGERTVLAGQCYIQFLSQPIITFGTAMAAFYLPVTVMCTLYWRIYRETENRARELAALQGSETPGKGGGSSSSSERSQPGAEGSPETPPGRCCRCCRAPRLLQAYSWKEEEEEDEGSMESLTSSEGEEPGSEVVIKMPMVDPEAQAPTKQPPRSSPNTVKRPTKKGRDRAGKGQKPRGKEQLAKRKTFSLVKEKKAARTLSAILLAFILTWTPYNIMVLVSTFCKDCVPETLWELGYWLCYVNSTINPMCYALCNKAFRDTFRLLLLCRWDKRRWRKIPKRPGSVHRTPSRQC

[3] = target: T2, Muscarinic acetylcholine receptor M1; assay type: functional, cell-based; remark: listed apart in the source
[4] = target: Vascular endothelial growth factor receptor 2 (Homo sapiens, UniProt P35968); assay type: functional
Sequence of Vascular endothelial growth factor receptor 2 (P35968 whole entry): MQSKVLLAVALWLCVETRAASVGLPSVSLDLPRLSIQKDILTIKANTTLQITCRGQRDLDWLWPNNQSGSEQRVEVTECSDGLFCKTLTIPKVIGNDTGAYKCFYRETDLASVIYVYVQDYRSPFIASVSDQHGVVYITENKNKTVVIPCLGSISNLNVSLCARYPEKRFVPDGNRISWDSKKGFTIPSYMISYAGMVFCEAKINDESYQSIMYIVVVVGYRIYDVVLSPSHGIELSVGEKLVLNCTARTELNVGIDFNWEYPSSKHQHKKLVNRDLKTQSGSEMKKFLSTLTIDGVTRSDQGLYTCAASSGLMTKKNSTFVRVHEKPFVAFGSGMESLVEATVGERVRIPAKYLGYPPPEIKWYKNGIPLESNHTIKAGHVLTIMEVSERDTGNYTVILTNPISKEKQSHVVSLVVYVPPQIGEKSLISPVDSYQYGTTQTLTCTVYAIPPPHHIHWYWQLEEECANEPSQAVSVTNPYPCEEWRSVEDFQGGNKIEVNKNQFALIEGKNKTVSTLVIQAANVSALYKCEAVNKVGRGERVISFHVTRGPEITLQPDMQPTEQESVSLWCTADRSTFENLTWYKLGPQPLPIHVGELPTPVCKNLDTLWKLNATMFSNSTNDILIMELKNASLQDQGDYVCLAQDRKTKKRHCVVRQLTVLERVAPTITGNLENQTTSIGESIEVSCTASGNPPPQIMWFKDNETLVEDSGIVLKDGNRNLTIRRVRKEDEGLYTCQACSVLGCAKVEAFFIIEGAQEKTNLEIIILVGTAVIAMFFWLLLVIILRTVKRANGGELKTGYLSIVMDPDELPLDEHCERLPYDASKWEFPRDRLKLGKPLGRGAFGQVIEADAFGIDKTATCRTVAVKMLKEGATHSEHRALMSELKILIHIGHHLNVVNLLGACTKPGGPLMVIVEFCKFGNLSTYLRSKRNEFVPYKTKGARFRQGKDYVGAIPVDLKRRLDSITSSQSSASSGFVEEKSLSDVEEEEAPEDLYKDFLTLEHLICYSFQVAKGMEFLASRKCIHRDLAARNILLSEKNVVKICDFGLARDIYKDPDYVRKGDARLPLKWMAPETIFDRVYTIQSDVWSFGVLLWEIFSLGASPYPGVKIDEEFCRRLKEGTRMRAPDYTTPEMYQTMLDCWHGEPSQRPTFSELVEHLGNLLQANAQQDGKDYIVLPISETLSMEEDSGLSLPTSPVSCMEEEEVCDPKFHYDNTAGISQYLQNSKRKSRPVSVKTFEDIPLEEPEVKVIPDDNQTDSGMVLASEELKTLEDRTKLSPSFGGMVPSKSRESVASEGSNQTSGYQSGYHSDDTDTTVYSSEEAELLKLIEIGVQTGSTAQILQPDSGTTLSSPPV

[5] = target: 3',5'-cyclic-AMP phosphodiesterase 4A (Homo sapiens, UniProt P27815); assay type: functional
Sequence of 3',5'-cyclic-AMP phosphodiesterase 4A (P27815 whole entry): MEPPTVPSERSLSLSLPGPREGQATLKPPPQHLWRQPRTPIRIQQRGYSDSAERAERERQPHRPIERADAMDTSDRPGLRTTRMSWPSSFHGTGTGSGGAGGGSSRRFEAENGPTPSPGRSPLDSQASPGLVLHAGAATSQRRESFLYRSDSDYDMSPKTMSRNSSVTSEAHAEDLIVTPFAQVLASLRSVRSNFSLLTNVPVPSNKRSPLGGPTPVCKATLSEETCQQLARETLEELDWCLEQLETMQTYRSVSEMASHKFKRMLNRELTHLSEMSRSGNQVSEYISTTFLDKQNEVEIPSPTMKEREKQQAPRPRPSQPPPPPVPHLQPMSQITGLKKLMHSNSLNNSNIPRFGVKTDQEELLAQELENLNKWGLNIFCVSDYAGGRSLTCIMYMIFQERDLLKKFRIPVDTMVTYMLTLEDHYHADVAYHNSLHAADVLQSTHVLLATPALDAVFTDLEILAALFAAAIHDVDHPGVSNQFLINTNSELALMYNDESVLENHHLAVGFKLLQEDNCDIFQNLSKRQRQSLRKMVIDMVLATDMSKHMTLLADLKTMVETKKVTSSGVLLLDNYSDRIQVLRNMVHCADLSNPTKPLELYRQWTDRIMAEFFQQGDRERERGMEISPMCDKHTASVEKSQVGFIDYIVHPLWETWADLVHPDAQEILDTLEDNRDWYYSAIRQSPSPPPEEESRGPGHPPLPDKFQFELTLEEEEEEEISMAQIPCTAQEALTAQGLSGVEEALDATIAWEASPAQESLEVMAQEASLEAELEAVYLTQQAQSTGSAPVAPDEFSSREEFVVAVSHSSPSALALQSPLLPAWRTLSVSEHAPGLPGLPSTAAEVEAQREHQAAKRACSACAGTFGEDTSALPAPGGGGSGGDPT
Also: assay procedure not described here.

| SMILES | AC50 [1] [µM] | AC50 [2] [µM] | AC50 [3] [µM] | AC50 [4] [µM] | AC50 [5] [µM] |
| --- | --- | --- | --- | --- | --- |
| CC(=O)O[C@H]1C[C@H](O[C@H]2[C@@H](O)C[C@H](O[C@H]3[C@@H](O)C[C@H](O[C@H]4CC[C@@]5(C)[C@H](CC[C@@H]6[C@@H]5C[C@@H](O)[C@]5(C)[C@@H](C7=CC(=O)OC7)CC[C@]65O)C4)O[C@@H]3C)O[C@@H]2C)O[C@H](C)[C@H]1O[C@@H]1O[C@H](CO)[C@@H](O)[C@H](O)[C@H]1O [LANATOSIDE C] | > 30 | > 30 | > 30 | > 30 | > 30 |
| CC[N+](C)(CC)CCOC(=O)C1c2ccccc2Oc2ccccc21 [METHANTHELINE] | > 30 | > 30 | 0.0287 | > 30 | > 30 |
| CO[C@H]1[C@@H](O)C[C@H](O[C@H]2[C@@H](O)C[C@H](O[C@H]3[C@@H](O)C[C@H](O[C@H]4CC[C@@]5(C)[C@H](CC[C@@H]6[C@@H]5C[C@@H](O)[C@]5(C)[C@@H](C7=CC(=O)OC7)CC[C@]65O)C4)O[C@@H]3C)O[C@@H]2C)O[C@@H]1C [METILDIGOXIN] | > 30 | > 30 | > 30 | > 30 | > 30 |
| CCOC(=O)[C@H](CCc1ccccc1)N[C@@H](C)C(=O)N1Cc2cc(OC)c(OC)cc2C[C@H]1C(=O)O [MOEXIPRIL] | > 30 | > 30 | > 30 | > 30 | > 30 |
| CC(c1ccc(Cl)c(Cl)c1)N1N=C(N)CC1=O (stereo not given) [MUZOLIMINE] | > 30 | > 30 | > 30 | > 30 | > 30 |
| CCN(CC)CCOC(=O)C(Cc1cccc2ccccc12)CC1CCCO1 (stereo not given) [NAFRONYL] | > 30 | > 30 | 24.2 | > 30 | > 30 |
| N[C@@H](Cc1c[nH]c2ccc(O)cc12)C(=O)O [OXITRIPTAN] | > 30 | > 30 | > 30 | > 30 | > 30 |
| C1CNCCN1 [PIPERAZINE] | > 30 | > 30 | > 30 | 23.3 | 28.4 |
| c1cc(CN2CCCNCCNCCCNCC2)ccc1CN1CCCNCCNCCCNCC1 [PLERIXAFOR] | > 30 | > 30 | > 30 | > 30 | > 30 |
| CCCC(=O)O[C@H]1[C@H](C)O[C@@H](O[C@H]2[C@H](N(C)C)[C@@H](O)[C@H](O[C@H]3[C@@H](CC=O)C[C@@H](C)[C@@H](O)/C=C/C=C/C[C@@H](C)OC(=O)C[C@@H](O)[C@@H]3OC)O[C@@H]2C)C[C@@]1(C)OC(=O)CC [ROKITAMYCIN] | > 30 | > 30 | > 30 | > 30 | > 30 |
| CCCCCCCCCCCCCCCCCC(=O)NCCCC[C@H](NC(=O)CC[C@@H](NC(=O)[C@H](C)NC(=O)[C@@H](C)O[C@H]1[C@H](O)[C@@H](CO)OC(O)[C@@H]1NC(C)=O)C(N)=O)C(=O)O (stereo not given in full) [ROMURTIDE] | 13.3 | > 30 | 6.71 | > 30 | > 3 |
| COc1cc([C@@H]2c3cc4c(cc3[C@@H](O[C@@H]3O[C@@H]5CO[C@@H](c6cccs6)O[C@H]5[C@H](O)[C@H]3O)[C@H]3COC(=O)[C@H]23)OCO4)cc(OC)c1O [TENIPOSIDE] | > 30 | > 30 | > 30 | > 30 | > 30 |
